From patent US12187720B2, “Compounds for treatment of cancer” (ONCTERNAL THERAPEUTICS, INC., priority 2010, dated 2025)
Like-named read-outs stand apart in the source and are kept apart here.

Experiments:
PC-3 = experiment: SRB cytotoxicity assay, PC-3 prostate cancer cells; format: cell-based, human; conditions: read-out: inhibitory effects PC3
From the text: (§1) Cells were stained with SRB solution.

PPC-1 = experiment: SRB cytotoxicity assay, PPC-1 prostate cancer cells; format: cell-based, human
From the text: as §1

LNCaP = experiment: SRB cytotoxicity assay, LNCaP prostate cancer cells; format: cell-based, human
From the text: as §1

DU 145 = experiment: SRB cytotoxicity assay, DU 145 prostate cancer cells; format: cell-based; conditions: Homo sapiens
From the text: as §1

[1] = tested on: melanoma and prostate cancer cell lines; experiment: SRB cytotoxicity, summary or average over melanoma and prostate cancer cell lines; format: cell-based; conditions: for IC50: average of all seven cell lines
[2] = Table 13A, read-out: inhibitory effects DU145
[3] = Homo sapiens, PPC-1, Table 13A, read-out: inhibitory effects PPC1
[4] = Homo sapiens, LNCaP, Table 13A, read-out: inhibitory effects LNCaP
[5] = Homo sapiens, LNCaP, Table 6A, read-out: IC50 LNCaP

CCn1cc(-c2ccccc2)nc1C(=O)c1cc(OC)c(OC)c(OC)c1 [70n, (1-ethyl-4-phenyl-1H-imidazol-2-yl)(3,4,5-trimethoxyphenyl)methanone] gave an IC50 (PC-3; Homo sapiens, PC-3, Table 13A) of 0.025 µM.

With “4-Methoxyphenyl(4-(3,4,5-trimethoxyphenyl)-1H-imidazol-2-yl)methanone and 4-methoxyphenyl(5-(3,4,5-trimethoxyphenyl)-1H-imidazol-2-yl)methanone [70y]” the IC50 (PC-3; Table 13B) was 10.4 µM, the IC50 (PPC-1; Table 13B, read-out: inhibitory effects PPC1) was 5.69 µM and the IC50 (LNCaP; Table 13B, read-out: inhibitory effects LNCaP) was 0.709 µM.

In the case of CCCc1[nH]c(C(=O)c2cc(OC)c(OC)c(OC)c2)nc1-c1ccccc1 [70l, (4-phenyl-5-propyl-1H-imidazol-2-yl)(3,4,5-trimethoxyphenyl)methanone], the IC50 (DU 145; [2]) is reported as 16.4 µM, the IC50 (PC-3; Homo sapiens, PC-3, Table 13A) is reported as 12.4 µM and the IC50 (PPC-1; [3]) is reported as 11.4 µM. It also gave an IC50 (LNCaP; [4]) of 3.09 µM.

O=C(c1ccc(OC(F)(F)F)cc1)c1csc(-c2ccccc2)n1 [compound 13] was tested, and the IC50 (LNCaP; [5]) was > 10 µM.

In the case of COc1cc(C(=O)c2nc(-c3ccc(F)cc3)c[nH]2)cc(OC)c1OC [70b, (4-(4-fluorophenyl)-1H-imidazol-2-yl)(3,4,5-trimethoxyphenyl)methanone], the IC50 (DU 145; [2]) is reported as 0.353 µM, the IC50 (PC-3; Homo sapiens, PC-3, Table 13A) is reported as 0.196 µM and the IC50 (PPC-1; [3]) is reported as 0.013 µM. It also gave an IC50 (LNCaP; [4]) of 0.114 µM.

In the case of COc1cc(OC)cc(C(=O)c2c[nH]c(-c3ccccc3)n2)c1 [12ad, (3,5-dimethoxyphenyl)(2-phenyl-1H-imidazol-4-yl)methanone], the IC50 [1] is reported as 3.1 µM.

Compound COc1cc(C(=O)c2nc(-c3ccccc3)cn2C)cc(OC)c1OC [70m, (1-methyl-4-phenyl-1H-imidazol-2-yl)(3,4,5-trimethoxyphenyl)methanone] has an IC50 (PC-3; Homo sapiens, PC-3, Table 13A) of 0.016 µM.

In the case of O=C(c1ccc(F)cc1)c1csc(-c2ccc(F)cc2)n1 [compound 14], the IC50 (LNCaP; [5]) is reported as > 10 µM.

Work on COc1ccc(-c2nc(C(=O)c3cc(OC)c(OC)c(OC)c3)cn2S(=O)(=O)c2ccccc2)cc1OC [11ha, (2-(3,4-dimethoxyphenyl)-1-(phenylsulfonyl)-1H-imidazol-4-yl)(3,4,5-trimethoxyphenyl)methanone] yielded an IC50 [1] of 0.268 µM.

With COc1cc(C(=O)c2csc(-c3ccc(CN(C)C)cc3)n2)cc(OC)c1OC.Cl [2u, (2-(4-((Dimethylamino)methyl)phenyl)thiazol-4-yl)(3,4,5-trimethoxyphenyl)methanone hydrochloride] the “antiproliferative activity in words” value [1] was “abrogated activity”.

In the case of COc1cc(C(=O)c2nc(-c3ccccc3)cn2Cc2ccccc2)cc(OC)c1OC [70o, (1-benzyl-4-phenyl-1H-imidazol-2-yl)(3,4,5-trimethoxyphenyl)methanone], the IC50 (PC-3; Homo sapiens, PC-3, Table 13A) is reported as 0.072 µM.

Work on Cc1ccc(-c2nc(C(=O)c3ccc(F)cc3)cn2S(=O)(=O)c2ccccc2)cc1 [11db, (4-fluorophenyl)(1-(phenylsulfonyl)-2-(p-tolyl)-1H-imidazol-4-yl)methanone] yielded an IC50 [1] of 0.111 µM.

In the case of CN(C)c1ccc(-c2nc(C(=O)c3ccc(F)cc3)cn2S(=O)(=O)c2ccccc2)cc1 [11gb, (2-(4-(dimethylamino)phenyl)-1-(phenylsulfonyl)-1H-imidazol-4-yl)(4-fluorophenyl)methanone], the IC50 [1] is reported as 0.087 µM.

For COc1cc(-c2nc(C(=O)c3ccc(F)cc3)cn2C(=O)c2ccc(F)cc2)cc(OC)c1OC [compound 30], the IC50 (LNCaP; [5]) was > 10 µM.

COc1cc(/C=C\c2csc(-c3ccccc3)n2)cc(OC)c1OC [3a, (Z)-2-Phenyl-4-(3,4,5-trimethoxystyryl)thiazole] was tested, and the “antiproliferative activity in words” value [1] was “lost activity”.

In the case of O=C(c1ccc2c(c1)OCO2)N1CCC(c2ccccc2)CC1 [compound 19], the IC50 (LNCaP; [5]) is reported as > 20 µM.

In the case of COc1cc(C(=O)c2coc(-c3ccccc3)n2)cc(OC)c1OC [36a, (2-Phenyl-oxazol-4-yl)-(3,4,5-trimethoxy-phenyl)-methanone], the “antiproliferative activity in words” value [1] is reported as “hundreds of nanomolar range”.

For COc1cc(C(O)c2csc(-c3ccccc3)n2)cc(OC)c1OC (stereo not drawn) [2b, (2-Phenylthiazol-4-yl)(3,4,5-trimethoxyphenyl)methanol], the “antiproliferative activity in words” value [1] was “inactive”.

In the case of COc1cc(C(=O)c2csc(-c3ccccc3)n2)cc(OC)c1OC(=O)C(F)(F)F [compound 23], the IC50 (LNCaP; [5]) is reported as ~10 µM.

COc1cc(C(=O)c2csc(-c3ccccc3)n2)cc(OC)c1OC(=O)CCl [compound 18] showed an IC50 (LNCaP; [5]) of ~10 µM.

In the case of O=C(c1cc(O)c(O)c(O)c1)c1c[nH]c(-c2ccc(Cl)cc2)n1 [13fa, (2-(4-chlorophenyl)-1H-imidazol-4-yl)(3,4,5-trihydroxyphenyl)methanone], the IC50 [1] is reported as 3.89 µM.

In the case of Cc1ccc(-c2nc(C(=O)c3ccc(F)cc3)cs2)cc1 [compound 11], the IC50 (DU 145; Table 6A, read-out: IC50 DU 145) is reported as ~10 µM, the IC50 (PPC-1; Homo sapiens, PPC-1, Table 6A, read-out: IC50 PPC-1) is reported as ~10 µM and the IC50 (LNCaP; [5]) is reported as > 10 µM.

COc1cc(C(=O)[C@H]2COC(c3ccccc3)=N2)cc(OC)c1OC [35a, (2R)-(2-Phenyl-4,5-dihydro-oxazol-4-yl)-(3,4,5-trimethoxy-phenyl)-methanone] was tested, and the “antiproliferative activity in words” value [1] was “hundreds of nanomolar range”.

Compound COc1cc(C(=O)c2cn(S(=O)(=O)c3ccccc3)c(-c3ccc(N(C)C)cc3)n2)cc(OC)c1OC [11ga, (2-(4-(dimethylamino)phenyl)-1-(phenylsulfonyl)-1H-imidazol-4-yl)(3,4,5-trimethoxyphenyl)methanone] has an IC50 [1] of 0.285 µM.

In the case of O=C(c1cc(O)c(O)c(O)c1)c1csc(-c2ccccc2)n1 [compound 33], the IC50 (LNCaP; [5]) is reported as > 2 µM.

For O=C(c1csc(-c2cc(F)c(F)c(F)c2)n1)c1c(F)c(F)c(F)c(F)c1F [compound 16], the IC50 (LNCaP; [5]) was > 10 µM.

For CNCc1ccc(-c2nc(C(=O)c3cc(OC)c(OC)c(OC)c3)cs2)cc1.Cl [2s, (2-(4-((Methylamino)methyl)phenyl)thiazol-4-yl)(3,4,5-trimethoxyphenyl)methanone hydrochloride], the “antiproliferative activity in words” value [1] was “abrogated activity”.

O=C(c1ccc(F)cc1)c1c[nH]c(-c2ccccc2)n1 [12af, (4-fluorophenyl)(2-phenyl-1H-imidazol-4-yl)methanone] gave an IC50 [1] of 0.91 µM.

With O=C(c1ccc(F)cc1)c1c[nH]c(-c2ccc(OCc3ccccc3)cc2)n1 [12jb, (2-(4-(benzyloxy)phenyl)-1H-imidazol-4-yl)(4-fluorophenyl)methanone] the “fold more activity than the comparator” value ([1]; 2e-cis vs 2e-trans, 12jb vs 12kb) was 440 fold and the IC50 [1] was 0.075 µM.

COc1cc(C(=O)c2cccc(-c3ccccc3)c2)cc(OC)c1OC [1a, Biphenyl-3-yl(3,4,5-trimethoxyphenyl)methanone] was tested, and the “antiproliferative activity in words” value [1] was “hundreds of nanomolar range”.

With O=C(c1ccc(F)cc1)c1csc(-c2ccccc2)n1 [compound 12] the IC50 (LNCaP; [5]) was > 10 µM.

In the case of O=C(c1ccc(F)cc1)N1CCC(c2ccccc2)CC1 [compound 22], the IC50 (LNCaP; [5]) is reported as > 20 µM.

In the case of COc1cc(C(=O)c2nc(-c3ccccc3)c[nH]2)cc(OC)c1OC [70a, (4-phenyl-1H-imidazol-2-yl)(3,4,5-trimethoxyphenyl)methanone], the IC50 (PC-3; Homo sapiens, PC-3, Table 13A) is reported as 0.014 µM.

Work on COc1cc(C(=O)c2nc(-c3ccccc3)cn2C2CCCC2)cc(OC)c1OC [70p, (1-cyclopentyl-4-phenyl-1H-imidazol-2-yl)(3,4,5-trimethoxyphenyl)methanone] yielded an IC50 (PC-3; Homo sapiens, PC-3, Table 13A) of 0.056 µM.

For COc1cc(C(=O)c2csc(-c3ccccc3)n2)cc(OC)c1OCc1ccccc1 [compound 9], the IC50 (LNCaP; [5]) was ~10 µM.

Cc1ccc(-c2nc(C(=O)c3ccc(F)cc3)c[nH]2)cc1 [12db, (4-fluorophenyl)(2-(p-tolyl)-1H-imidazol-4-yl)methanone] showed an IC50 [1] of 0.109 µM.

COc1cc(C(=O)c2c[nH]c(-c3ccc(OCc4ccccc4)cc3)n2)cc(OC)c1OC [12ja, (2-(4-(benzyloxy)phenyl)-1H-imidazol-4-yl)(3,4,5-trimethoxyphenyl)methanone] gave an IC50 [1] of 7.3 µM.
